Blank lines part the entries; values can stand above or below the compound they belong to.
Experiments:
Type in all cases: biochemical
GST-MYCBP2 = biological target: T1, GST-MYCBP2 (Homo sapiens, UniProt O75592); assay: Multiple turnover amino acid and peptide panel discharge assays; settings: for function as proxy substrate (hydroxy probe) of MYCBP2: tested herein as proxy substrates; for discharge activity / Ub modification in amino acid panel: amino acid nucleophile, UBE2D3~Ub, MYCBP2cat
T1 construct: GST-tagged MYCBP2cat (Ser4378-Phe4640), wt and mutants, were expressed at 16° C. overnight; made in house; host or cells: E. coli BL21-DE3
T1 sequence (O75592 4416-4678 limits assumed): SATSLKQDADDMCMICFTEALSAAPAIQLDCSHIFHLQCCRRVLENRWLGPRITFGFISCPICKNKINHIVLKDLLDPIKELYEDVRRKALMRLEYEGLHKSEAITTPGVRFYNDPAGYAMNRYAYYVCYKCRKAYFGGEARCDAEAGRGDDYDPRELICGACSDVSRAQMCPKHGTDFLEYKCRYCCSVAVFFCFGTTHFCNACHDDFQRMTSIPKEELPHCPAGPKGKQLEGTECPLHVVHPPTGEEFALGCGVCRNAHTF
Description: Stock solutions (0.5 M) of amino acids were dissolved in MQ water and pH was adjusted to pH ˜8. Peptides of the sequence Ac-EGXGN-NH2 (X=K, S or T) were obtained from Bio-Synthesis Inc. Stock peptide solutions (200 mM) were dissolved in MQ water and pH was adjusted to pH ˜8. An E2 (UBE2D3) charging reaction was carried out in buffer (40 mM Na2HPO4—HCl pH 8.0, 150 mM NaCl, 0.5 mM TCEP) containing UBE1 (250-500 nM), UBE2D3 (20 μM), Ub (50 μM), or Cy3B-Ub (25 μM), MgCl2 (5 mM) and ATP 10 (mM). The reaction was incubated at 37° C. for 15 minutes and then equilibrated to 23° C. for 3 minutes. An equivalent volume of nucleophile sample containing small molecule/peptide nucleophile (100 mM) and GST-MYCBP2 (10 μM) was then added and incubated at 23° C. Samples were taken at the specified time points and analyzed as described for Tris/glycerol-mediated E2 discharge assay.
Cy3B-Ub was visualized using a Chemidoc Gel Imaging System (Biorad). LC-MS was carried out as described for Tris/glycerol discharge but amino acid substrate samples were quenched by the addition of 2:1 parts quenching solution (75% acetonitrile, 2% TFA) and peptide substrate samples were quenched by addition of 1:1 parts quenching solution.

MYCBP2 = biological target: T2, MYCBP2 (Homo sapiens, UniProt O75592); assay: Tris/glycerol-mediated E2 discharge assay with LC-MS analysis; settings: Tris 50 mM and glycerol ~65 mM in assay buffer
T2 construct: GST-tagged MYCBP2cat (Ser4378-Phe4640), wt and mutants, were expressed at 16° C. overnight; GST (N); made in house; host or cells: E. coli BL21-DE3
T2 sequence (O75592 4416-4678 limits assumed): T1 sequence (O75592 4416-4678 limits assumed)
Description: Assays were carried out in buffer (50 mM Tris-HCl pH 7.5, 150 mM NaCl, 0.5 mM TCEP, 5 mM MgCl2) containing the indicated MYCBP2 mutant (15 μM), UBE1 (1.5 μM), UBE2D3 (15 μM), Ub (37 μM) and ATP (10 mM). The reactions were incubated at 37° C. for 30 minutes. Reactions were terminated by the addition of 4×LDS loading buffer (with and without ˜680 mM 2-mercaptoethanol). A C4572S sample was further incubated with 0.14 N NaOH at 37° C. for 20 minutes and samples were resolved by SDS-PAGE (4-12% NuPage gel) and visualized by Coomassie staining.
Reactions were prepared as described for discharge assay. After 30 minutes, the reaction was analyzed using an Agilent 1200/6130 LC-MS system (Agilent Technologies) using a 10-75% gradient over 20 minutes (buffer A=H2O+0.05% TFA, buffer B=acetonitrile+0.04% TFA).

MYCBP2cat = biological target: T3, MYCBP2cat (Homo sapiens, UniProt O75592); assay: NMNAT2 ubiquitination assay; settings: base lability and thiol resistance test
T3 construct: GST-tagged MYCBP2cat (Ser4378-Phe4640), wt and mutants, were expressed at 16° C. overnight; GST (N, cleaved yes); made in house; host or cells: E. coli BL21-DE3
T3 sequence (O75592 4416-4678 limits assumed): T1 sequence (O75592 4416-4678 limits assumed)
Description: NMNAT2 (5 μM) was mixed with E1 (500 nM), UBE2D3 (10 μM), MYCBP2cat (10 μM), Ub (50 μM), ATP (10 mM) and made up with 10×pH 7.5 buffer (40 mM Na2H2PO4 pH 7.5, 150 mM NaCl, 5 mM MgCl2, 0.5 mM TCEP). The reactions were incubated at 37° C. for 1 hour and terminated by the addition of 4×LDS loading buffer (either non-reducing or reducing). For base lability test, reactions were supplemented with 0.14 N NaOH and then further incubated at 37° C. for 20 minutes.

GST-MYCBP2cat = biological target: T4, GST-MYCBP2cat (Homo sapiens, UniProt O75592); assay: Multiple turnover E2 discharge panel (threonine discharge); settings: 17 E2s tested
T4 construct: GST-tagged MYCBP2cat (Ser4378-Phe4640), wt and mutants, were expressed at 16° C. overnight; made in house; host or cells: E. coli BL21-DE3
T4 sequence (O75592 4416-4678 limits assumed): T1 sequence (O75592 4416-4678 limits assumed)
Description: E2s were screened for threonine discharge activity with GST-MYCBP2cat as described for the amino acid panel. E2s were also incubated in the presence of threonine but in the absence of GST-MYCBP2cat. These samples provided a reference to distinguish between intrinsic E2˜Ub instability and E3-dependent discharge.

Compound: O=S(=O)(O)CCN1CCN(CCO)CC1 [HEPES, 4-(2-hydroxyethyl)-1-piperazineethanesulfonic acid]
function as proxy substrate (hydroxy probe) of MYCBP2 (GST-MYCBP2): functional

Compound: OCC(O)CO [glycerol]
function as proxy substrate (hydroxy probe) of MYCBP2 (GST-MYCBP2): functional
conversion of Ub into condensation product with nucleophile (MYCBP2): quantitatively converted

Compound: C[C@@H](O)[C@H](N)C(=O)O [threonine]
discharge activity / Ub modification in amino acid panel (GST-MYCBP2): strikingly enhanced
selectivity for threonine over serine (GST-MYCBP2; amino acid substrates, MS-based quantification of Ub esterification): ~10 fold
Threonine selectivity in a peptide context (GST-MYCBP2; peptides Ac-EGXGN-NH2 (X=K, S or T)): 3 fold
function as proxy substrate (hydroxy probe) of MYCBP2 (GST-MYCBP2): functional

Compound: NMNAT2: Nicotinamide Mononucleotide Adenyltransferase, putative MYCBP2 substrate
ubiquitination by MYCBP2cat in vitro (MYCBP2cat): hydroxide labile but thiol resistant ubiquitination

Compound: UBE2D1: E2 conjugating enzyme
E2 partner activity with MYCBP2cat (GST-MYCBP2cat): robust activity

Compound: UBE2D3: E2 conjugating enzyme, N-terminally 6His-tagged recombinant protein
E2 partner activity with MYCBP2cat (GST-MYCBP2cat): robust activity

Continued, values first:

discharge activity / Ub modification in amino acid panel (GST-MYCBP2): low level
Compound: NCCCC[C@H](N)C(=O)O [lysine]

function as proxy substrate (hydroxy probe) of MYCBP2 (GST-MYCBP2): functional
Compound: N[C@@H](CO)C(=O)O [serine]

function as proxy substrate (hydroxy probe) of MYCBP2 (GST-MYCBP2): functional
conversion of Ub into condensation product with nucleophile (MYCBP2): quantitatively converted
Compound: tris(hydroxymethyl)aminomethane

Source: patent US20210017569A1, “Ligase Screening Assay” (UNIVERSITY OF DUNDEE, priority 2018, published 2021)
